Here are results for one compound from US11666558B2, “Methods of treating intraocular pressure with activators of Tie-2” (EyePoint Pharmaceuticals, Inc., priority 2015, dated 2023).

Data set [1] is described as follows: Ocular abnormalities in the ocular pharmacokinetics study. Format: in vivo, New Zealand White rabbits. The conditions noted are these: all dose groups (topical ocular, subcutaneous, intravitreal). The procedure:
Pre-screening clinical ophthalmic exams were done prior to study (includes slit-lamp biomicroscopy and indirect ophthalmoscopy). Ocular findings were scored using the McDonald-Shadduck Score System, and only animals that scored zero in all categories were used in the study.
Concentration versus time data is plotted in FIGS. 3-16. All data are expressed as ng/g of the free drug. Samples that were below the limit of quantitation (0.2 ng/mL) were not used in the calculation of averages.

For another data set, the system named is intraocular pressure. The experiment in a line: Intraocular pressure change from baseline, Compound 1 BID at varying doses, 28 Day EOT (FIG. 1). To be noted: doses greater than 15 mg BID, patients with diabetic macular edema. The data set is classed as in vivo, human. The procedure: The difference in IOP was determined at the end of the trial, which was 28 days after treatment began (28 Day EOT). Changes in IOP were determined both in the study eye and the fellow eye.

On to `COC(=O)N[C@@H](Cc1ccccc1)C(=O)N[C@@H](Cc1ccc(NS(=O)(=O)O)cc1)c1csc(-c2cccs2)n1` [Compound 1], for which the ocular abnormalities result in data set [1] was “No ocular abnormalities”. Also, the “intraocular pressure (IOP) relative to pre-treatment baseline” value in the data set on intraocular pressure is listed as “decreased IOP”.
